Values after ≈ are worked out from the molar mass of the structure shown. Where two headings read alike, the source gives them in different places.
How the values were obtained:
[1] = Plasma pharmacokinetics after single intravenous administration in beagle dogs; assay type: in vivo, dog; settings: mean ± SD; for HL (plasma half-life): IV 2 mg/kg; for AUC / clearance / half-life / Vd: beagle, dog, plasma, iv, 2 mg/kg; for clearance: read-out: CL (plasma clearance) (converted); for half-life: read-out: HL (plasma half-life) (converted); for Vd: read-out: V (volume of distribution)
Experimental: To verify this hypothesis, a PK investigation of cimicoxib following IV administration (bolus, 2 mg/kg) was performed on the 12 dogs at least 2 months after the completion of the PK/PD study. Blood samples were obtained from the jugular vein by direct puncture at time 0 (control just before the IV administration) and then 2, 15, 30, 60, 90 min. and 2, 3, 4, 6, 9, 12, 24, 30 and 48 hours after the test article administration.
Plasma samples were analyzed by a High Performance Liquid Chromatography (HPLC) method using ultraviolet (UV) detection. Briefly, an internal standard (UR-8877) and cimicoxib (UR-8880) were extracted from plasma by a solid liquid (methanol) extraction process using HLB Oasis cartridges (Waters). The extraction yield was about 90%. The HPLC apparatus consists of a pump system equipped with an automatic injector and an UV detector (242 nm). […] The mobile phase was a mixture of 0.65 L of ultra-pure water and 0.35 L of acetonitrile which was delivered at a flow rate of 1 mL per min. Under these conditions, cimicoxib (UR-8880) and the internal standard (UR-8877) were eluted at retention times of 6 to 7 min and 10 to 11 min, respectively. The method was linear over the calibration range of 0.01 to 5 μg/mL using a linear model weighted by 1/X^2. Within-day and day-to-day coefficients of variation were less than 9% and the accuracy ranged from 94 to 103%, indicating an appropriate precision and accuracy for the analytical method. The lack of interference from endogenous compounds was verified on blank plasma from untreated dogs, establishing the specificity of the method. The validated limit of quantification was 0.01 μg/mL.
For the IV study, a non-compartmental analysis was used to determined PK parameters.

[2] = test system: kaolin-induced paw inflammation; experiment: PK/PD modelling (indirect response models) of kaolin paw inflammation endpoints; assay type: in vivo, dog; settings: for EC50 at 2 mg/kg / IC50 at 2 mg/kg: po; for EC50 at 2 mg/kg: read-out: EC50, body temperature
Experimental: Pharmacokinetic and PK/PD modeling were performed by least-squares regression analysis using WinNonlin Professional software (WinNonlin® software, version 4.0.1, Pharsight Corporation, Mountain View, Ca, USA). For PK analysis, individual plasma cimicoxib concentrations were fitted to polyexponential equations. The data points were weighted by the inverse of the squared-fitted value. The number of exponential (2 or 3) terms needed to obtain the best fit for each data set was determined by the Akaike’s information criteria and by inspecting the plot of residuals. A biexponential equation corresponding to a mono-compartmental model for extravascular administration with a lag-time was selected (Equation 1).
As the effect cimicoxib on the local temperature and paw oedema after inflammation were present but lower than the other effects, these endpoints were not used for the PK/PD analysis. […] Finally, four endpoints were considered as suitable for the PK/PD analysis aiming at modelling the relationship between cimicoxib plasma concentrations and its antipyretic and anti-inflammatory effects, namely: body temperature (antipyretic effect), creeping speed, vertical force of the paw and clinical lameness score (anti-inflammatory effects).
The selected PK/PD models were of the class of the indirect response models as proposed by Dayneka. In these models, the measured response (R) is assumed to result from factors controlling either the development (Kin) or the dissipation (Kout) of the response according to Equation 3.
where dR/dt is the rate of change of the response over time, Kin represents the zero-order rate constant for production of the response and Kout the first-order rate constant for loss of the response. The time development of measured response was modeled by a sigmoid-Emax (maximum stimulatory effect) or sigmoid-Imax (maximum inhibition effect) function (Hill models) that can be exerted either on Kin or Kout. […] The effect of cimicoxib on the central temperature was based on a model assuming that during the inflammation phase, thermogenesis is increased (increase in Kin) while thermolysis is reduced (reduction in Kout) until a new balance for central temperature is reached. The antipyretic effect of an NSAID consisted of an increase in thermolysis (increase of Kout) enabling the central temperature to return to its control values, according to Equation 4:
(4) dR/dT=Kin-Kout×1+Emax×C^n/EC50^n+C^n×R
For the creeping test consisting of crossing the tunnel more or less rapidly, an empirical model postulating that the dog’s speed (m.s^-1) is the result of a balance between its motivation to move forward (Kin) and a braking effect (Kout) associated with the severity of inflammation with a lower Kout in control conditions than during inflammation. During inflammation, pain increases the braking effect (i.e. increase Kout) and decreases the speed to cross the tunnel. The anti-inflammatory effect of cimicoxib consisted in reducing the pain (by decreasing Kout), which in turn increased the speed to cross the tunnel as described by Equation 5:
(5) dR/dT=Kin-Kout×1-Imax×C^n/IC50^n+C^n×R
For the vertical force measured with the force plate apparatus normalized by the weight of the dog (without units), Kin represents the ground reaction forces in control resting conditions and Kout represents the factors prompting the withdrawal of limb from the ground in the case of inflammation due to pain i.e. that Kout is increased in the case of inflammation. Thus, the anti-inflammatory effect of cimicoxib consisted in a reduction of pain (decrease of Kout) and the same model as for the creeping speed under the tunnel was used (see Equation 5).
During inflammation, Kin is increased and the effect of cimicoxib was modelled using a concentration-dependent inhibition of Kin, according to Equation 6:
(6) dR/dT=Kin×1-C^n/IC50^n+C^n-Kout×R

[3] = parameters: method as in Vetoquinol, unpublished results; settings: non-linear disposition, ref Vetoquinol, unpublished results, cited from earlier work
[4] = plasma concentration, oral 2 mg/kg, PM dogs, mean and range, 2 mg/kg

HL (plasma half-life) ([1]; Extensive metabolizers (n = 8)): 2.72 ± 0.858 h
HL (plasma half-life) ([1]; Poor metabolizers (n = 4)): 5.63 ± 0.727 h
AUC ([1]; Extensive metabolizers (n = 8)): 7200 ± 1810 ng·h/mL
clearance ([1]; Extensive metabolizers (n = 8)): 5.17 mL/min/kg
half-life ([1]; Extensive metabolizers (n = 8)): 2.7 ± 0.9 h
Vd ([1]; Extensive metabolizers (n = 8)): 1.12 ± 0.203 L/kg
AUC ([1]; Poor metabolizers (n = 4)): 19200 ± 3150 ng·h/mL
clearance ([1]; Poor metabolizers (n = 4)): 1.83 mL/min/kg
half-life ([1]; Poor metabolizers (n = 4)): 5.6 ± 1.7 h
Vd ([1]; Poor metabolizers (n = 4)): 0.89 ± 0.133 L/kg
EC50 ([2]; Canis lupus familiaris, abstract, value matches EM dogs, read-out: plasma concentration corresponding to half the maximum of the indirect effect, body temperature): 0.193 µg/mL (≈ 0.505 µM)
IC50 ([2]; Canis lupus familiaris, abstract, value matches EM dogs, read-out: plasma concentration corresponding to half the maximum of the indirect effect, creeping speed): 0.239 µg/mL (≈ 0.626 µM)
IC50 ([2]; Canis lupus familiaris, abstract, value matches EM dogs, read-out: plasma concentration corresponding to half the maximum of the indirect effect, ground reaction vertical force): 0.161 µg/mL (≈ 0.422 µM)
IC50 ([2]; Canis lupus familiaris, abstract, value matches EM dogs, read-out: plasma concentration corresponding to half the maximum of the indirect effect, lameness score): 0.284 µg/mL (≈ 0.744 µM)
EC50 at 2 mg/kg ([2]; Canis lupus familiaris, plasma concentration, oral 2 mg/kg, EM dogs, mean and range): 0.193 µg/mL (≈ 0.506 µM)
IC50 at 2 mg/kg ([2]; Canis lupus familiaris, plasma concentration, oral 2 mg/kg, EM dogs, mean and range, read-out: IC50, creeping speed): 0.239 µg/mL (≈ 0.627 µM)
IC50 at 2 mg/kg ([2]; Canis lupus familiaris, plasma concentration, oral 2 mg/kg, EM dogs, mean and range, read-out: IC50, lameness score): 0.284 µg/mL (≈ 0.745 µM)
IC50 at 2 mg/kg ([2]; Canis lupus familiaris, plasma concentration, oral 2 mg/kg, EM dogs, mean and range, read-out: IC50, vertical force): 0.161 µg/mL (≈ 0.421 µM)
EC50 at 2 mg/kg ([2]; Canis lupus familiaris, plasma concentration, oral 2 mg/kg, PM dogs, mean and range): 0.473 µg/mL (≈ 1.24 µM)
IC50 at 2 mg/kg ([2]; Canis lupus familiaris, plasma concentration, oral 2 mg/kg, PM dogs, mean and range, read-out: IC50, creeping speed): 0.345 µg/mL (≈ 0.902 µM)
IC50 at 2 mg/kg ([2]; Canis lupus familiaris, plasma concentration, oral 2 mg/kg, PM dogs, mean and range, read-out: IC50, lameness score): 0.786 µg/mL (≈ 2.06 µM)
IC50 at 2 mg/kg ([2]; Canis lupus familiaris, plasma concentration, oral 2 mg/kg, PM dogs, mean and range, read-out: IC50, vertical force): 0.325 µg/mL (≈ 0.851 µM)
IC50, lameness score [2, 4]: 785.8 [579.4, 916.1] ng/mL
IC50, vertical force [2, 4]: 325.1 [235.3, 397.6] ng/mL
Compound: COc1ccc(-c2c(Cl)ncn2-c2ccc(S(N)(=O)=O)cc2)cc1F [cimicoxib]
Emax, body temperature ([2]; EM dogs, mean and range): 0.04 [0.03, 0.06] no unit
Imax, creeping speed ([2]; EM dogs, mean and range): 0.71 [0.38, 1.00] no unit
Imax, vertical force ([2]; EM dogs, mean and range): 0.98 [0.93, 1.00] no unit
Kin, body temperature ([2]; EM dogs, mean and range): 41.30 [20.76, 84.13] °C.h^-1
Kin, creeping speed ([2]; EM dogs, mean and range): 0.90 [0.15, 2.71] m.s^-1.h^-1
Kin, lameness score ([2]; EM dogs, mean and range): 5.34 [1.17, 16.87] score.h^-1
Kin, vertical force ([2]; EM dogs, mean and range): 0.09 [0.06, 0.10] normalised force.h^-1
Kout, body temperature ([2]; EM dogs, mean and range): 1.04 [0.53, 2.10] h^-1
Kout, creeping speed ([2]; EM dogs, mean and range): 0.95 [0.24, 2.02] h^-1
Kout, lameness score ([2]; EM dogs, mean and range): 1.08 [0.22, 3.54] h^-1
Kout, vertical force ([2]; EM dogs, mean and range): 7.40 [3.21, 10.00] h^-1
Emax, body temperature ([2]; PM dogs, mean and range): 0.04 [0.03, 0.04] no unit
Imax, creeping speed ([2]; PM dogs, mean and range): 0.70 [0.44, 0.87] no unit
Imax, vertical force ([2]; PM dogs, mean and range): 0.97 [0.95, 0.99] no unit
Kin, body temperature ([2]; PM dogs, mean and range): 45.84 [42.76, 49.19] °C.h^-1
Kin, creeping speed ([2]; PM dogs, mean and range): 0.76 [0.36, 0.97] m.s^-1.h^-1
Kin, lameness score ([2]; PM dogs, mean and range): 2.57 [0.70, 4.96] score.h^-1
Kin, vertical force ([2]; PM dogs, mean and range): 0.09 [0.07, 0.10] normalised force.h^-1
Kout, body temperature ([2]; PM dogs, mean and range): 1.17 [1.09, 1.25] h^-1
Kout, creeping speed ([2]; PM dogs, mean and range): 1.07 [0.80, 1.47] h^-1
Kout, lameness score ([2]; PM dogs, mean and range): 0.509 [0.14, 0.99] h^-1
Kout, vertical force ([2]; PM dogs, mean and range): 8.47 [5.09, 9.99] h^-1
dose of the simulations to which observed plasma concentrations correspond ([3]; oral dose of 1 mg/kg): 1.46 mg/kg
dose of the simulations to which observed plasma concentrations correspond ([3]; oral dose of 4 mg/kg): 3.18 mg/kg

— article PMC3892053, “Pharmacokinetic/pharmacodynamic modeling for the determination of a cimicoxib dosing regimen in the dog” (BMC Veterinary Research, 2013)
